The experiment concerns the target T1, hCRTH2 (Homo sapiens, UniProt Q9Y5Y4).
T1 construct: expressed in transfected cells; host or cells: HEK (human embryonic kidney) cells expressing hCRTH2; membrane preparation
T1 sequence (Q9Y5Y4 1-395): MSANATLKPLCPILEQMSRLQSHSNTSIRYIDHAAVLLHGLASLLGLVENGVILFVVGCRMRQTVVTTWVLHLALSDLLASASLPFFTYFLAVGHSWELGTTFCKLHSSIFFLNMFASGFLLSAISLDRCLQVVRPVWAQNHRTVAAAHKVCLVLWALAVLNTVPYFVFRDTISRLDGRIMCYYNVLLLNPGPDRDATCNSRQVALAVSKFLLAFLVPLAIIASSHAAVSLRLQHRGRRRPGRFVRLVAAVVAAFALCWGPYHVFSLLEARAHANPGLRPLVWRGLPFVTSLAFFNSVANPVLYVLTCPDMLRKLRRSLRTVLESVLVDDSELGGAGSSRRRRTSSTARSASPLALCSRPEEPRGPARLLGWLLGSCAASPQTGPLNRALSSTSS
The experiment is described as follows: Radioligand binding assay ([3H]PGD2 competition, HEK-hCRTH2 membranes). Conditions: [3H]PGD2 binding. Summed up:
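Displacement of 3.0 nM [3H]PGD2 from human CRTH2 expressed in HEK membranes was measured at room temperature over 60 min. Unlabelled PGD2 at 10 μM gave non-specific binding.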

Structures are written as SMILES.

One may read the Ki as a measure of affinity in units of concentration, obtained from inhibition or displacement. Turning to `CC(CCCc1nc2cc(C(=O)NC3Cc4ccccc4C3)ccc2nc1-c1ccc(Cl)cc1)C(=O)O` (stereo not drawn) [compound 168, 3-(4-chlorophenyl)-7-[[(2,3-dihydro-1H-inden-2-yl)amino]carbonyl]-alpha-methyl-2-quinoxalinepentanoic acid], the Ki (rated A-E (Table A)) lay within 2.1 to 20 nM.

Molecule `CC(CCCc1nc2cc(C(=O)N3CCN(c4ccccc4)CC3)ccc2nc1-c1ccc(Cl)cc1)C(=O)O` (stereo not drawn) [compound 169, 3-(4-chlorophenyl)-alpha-methyl-7-[(4-phenyl-1-piperazinyl)carbonyl]-2-quinoxalinepentanoic acid] returned a Ki (rated A-E (Table A)) of 2.1 to 20 nM.

The molecule `C[C@]1(c2ccccc2)CCCN(C(=O)c2ccc3nc(-c4ccccc4)c(CCCCC(=O)O)nc3c2)C1` [compound 170, 7-[(3(R)-methyl-3-phenyl-1-piperidinyl)carbonyl]-3-phenyl-2-quinoxalinepentanoic acid] displayed an inhibition constant Ki (rated A-E (Table A)) of 2.1 to 20 nM.

The molecule `C[C@@]1(c2ccccc2)CCCN(C(=O)c2ccc3nc(-c4ccccc4)c(CCCCC(=O)O)nc3c2)C1` [compound 171, 7-[(3(S)-methyl-3-phenyl-1-piperidinyl)carbonyl]-3-phenyl-2-quinoxalinepentanoic acid] registered an inhibition constant (Ki) (rated A-E (Table A)) of 2.1 to 20 nM.

On to `O=C(O)CCCCc1nc2cc(C(=O)N3CC(c4ccccc4)C3)ccc2nc1-c1ccccc1` [compound 172, 3-phenyl-7-[(3-phenyl-1-azetidinyl)carbonyl]-2-quinoxalinepentanoic acid], for which the Ki (rated A-E (Table A)) fell in the range of 0.1 to 2 nM.

For the molecule `O=C(O)CCCCc1nc2cc(C(=O)N3CC(c4ccccc4)C3)ccc2nc1-c1ccc(F)cc1` [compound 173, 3-(4-fluorophenyl)--7-[(3-phenyl-1-azetidinyl)carbonyl]-2-quinoxalinepentanoic acid], the Ki was 0.1 to 2 nM (rated A-E (Table A)) and 1.6 nM (values in text).

Regarding `N#Cc1ccc(C2CN(C(=O)c3ccc4nc(-c5ccccc5)c(CCCCC(=O)O)nc4c3)C2)cc1` [compound 174, 7-[[3-(4-cyanophenyl)-1-azetidinyl]carbonyl]-3-phenyl-2-quinoxalinepentanoic acid], the Ki (rated A-E (Table A)) is 0.1 to 2 nM.

In turn, `N#Cc1cccc(C2CN(C(=O)c3ccc4nc(-c5ccccc5)c(CCCCC(=O)O)nc4c3)C2)c1` [compound 175, 7-[[3-(3-cyanophenyl)-1-azetidinyl]carbonyl]-3-phenyl-2-quinoxalinepentanoic acid] registered a Ki (rated A-E (Table A)) of 2.1 to 20 nM.

With `O=C(O)CCCCc1nc2cc(C(=O)N3CCCC(c4ccccc4)C3)ccc2nc1-c1ccc(Cl)cc1` (centres unmarked) [compound 176, 3-(4-chlorophenyl)-7-[(3-phenyl-1-piperidinyl)carbonyl]-2-quinoxalinepentanoic acid], the Ki (rated A-E (Table A)) is 2.1 to 20 nM.

Regarding `O=C(O)CCCCc1nc2cc(C(=O)N3CCOCC3)ccc2nc1-c1ccc(Cl)cc1` [compound 177, 3-(4-chlorophenyl)-7-(4-morpholinylcarbonyl)-2-quinoxalinepentanoic acid], the inhibition constant (Ki) (rated A-E (Table A)) lay within 2.1 to 20 nM.

As for `C[C@@H](NC(=O)c1ccc2nc(-c3ccc(Cl)cc3)c(CCCCC(=O)O)nc2c1)c1cccc(F)c1` [compound 178, 3-(4-chlorophenyl)-7-[[[1(R)-(3-fluorophenyl)ethyl]amino]carbonyl]-2-quinoxalinepentanoic acid], the inhibition constant Ki (rated A-E (Table A)) fell in the range of 0.1 to 2 nM.

Turning to `C[C@H](NC(=O)c1ccc2nc(-c3ccc(Cl)cc3)c(CCCCC(=O)O)nc2c1)c1cccc(F)c1` [compound 179, 3-(4-chlorophenyl)-7-[[[1(S)-(3-fluorophenyl)ethyl]amino]carbony!]-2-quinoxalinepentanoic acid], the inhibition constant Ki (rated A-E (Table A)) was 0.1 to 2 nM.

For the molecule `C[C@@H](NC(=O)c1ccc2nc(-c3ccc(Cl)cc3)c(CCCCC(=O)O)nc2c1)c1cccc(Cl)c1` [compound 180, 3-(4-chlorophenyl)-7-[[[1(R)-(3-chlorophenyl)ethyl]amino]carbonyl]-2-quinoxalinepentanoic acid], the Ki (rated A-E (Table A)) was in the range of 0.1 to 2 nM and the inhibitory constant (Ki) (values in text) was 0.6 nM.

Molecule `C[C@H](NC(=O)c1ccc2nc(-c3ccc(Cl)cc3)c(CCCCC(=O)O)nc2c1)c1cccc(Cl)c1` [compound 181, 3-(4-chlorophenyl)-7-[[[1(S)-(3-chlorophenyl)ethyl]amino]carbonyl]-2-quinoxalinepentanoic acid] gave a Ki (rated A-E (Table A)) of 0.1 to 2 nM.

As to `C[C@@H](NC(=O)c1ccc2nc(-c3ccc(Cl)cc3)c(CCCCC(=O)O)nc2c1)c1cccnc1` [compound 182, 3-(4-chlorophenyl)-7-[[[1(R)-(3-pyridinyl)ethyl]amino]carbonyl]-2-quinoxalinepentanoic acid], the inhibition constant (Ki) (rated A-E (Table A)) was in the range of 2.1 to 20 nM.

Molecule `C[C@H](NC(=O)c1ccc2nc(-c3ccc(Cl)cc3)c(CCCCC(=O)O)nc2c1)c1cccnc1` [compound 183] yielded a Ki (rated A-E (Table A)) of 2.1 to 20 nM.

Consider `O=C(O)CCCCc1nc2cc(C(=O)N[C@@H]3CCCc4cc(F)ccc43)ccc2nc1-c1ccc(Cl)cc1` [compound 184, 3-(4-chlorophenyl)-7-[[(6-fluoro-1,2,3,4-tetrahydro-1(R)-naphthalenyl)amino]carbonyl]-2-quinoxalinepentanoic acid], for which, under “rated A-E (Table A)”, the Ki lay in the range of 0.1 to 2 nM.

Molecule `O=C(O)CCCCc1nc2cc(C(=O)N[C@H]3CCCc4cc(F)ccc43)ccc2nc1-c1ccc(Cl)cc1` [compound 185, 3-(4-chlorophenyl)-7-[[(6-fluoro-1,2,3,4-tetrahydro-1(S)-naphthalenyl)amino]carbonyl]2-quinoxalinepentanoic acid] yielded a Ki (rated A-E (Table A)) of 2.1 to 20 nM.

The molecule `O=C(O)CCCCc1nc2cc(C(=O)N[C@@H]3CCCc4cc(Cl)ccc43)ccc2nc1-c1ccc(Cl)cc1` [compound 186, 3-(4-chlorophenyl)-7-[[(6-chloro-1,2,3,4-tetrahydro-1(R)-naphthalenyl)amino]carbonyl]-2-quinoxalinepentanoic acid] displayed a Ki (rated A-E (Table A)) of 0.1 to 2 nM.

For the setting “rated A-E (Table A)”, `O=C(O)CCCCc1nc2cc(C(=O)N[C@H]3CCCc4cc(Cl)ccc43)ccc2nc1-c1ccc(Cl)cc1` [compound 187, 3-(4-chlorophenyl)-7-[[(6-chloro-1,2,3,4-tetrahydro-1(S)-naphthalenyl)amino]carbonyl]-2-quinoxalinepentanoic acid] showed a Ki of 2.1 to 20 nM.

For the setting “rated A-E (Table A)”, `O=C(O)CCCCc1nc2cc(C(=O)N3CCN(c4ccc(F)cc4)CC3)ccc2nc1-c1ccc(Cl)cc1` [compound 189, 3-(4-chlorophenyl)-7-[[4-(4-fluorophenyl)-1-piperazinyl]carbonyl]-2-quinoxalinepentanoic acid] displayed an inhibition constant (Ki) of 0.1 to 2 nM.

`O=C(O)CCCCc1nc2cc(C(=O)N3CCN(c4ccccc4F)CC3)ccc2nc1-c1ccc(Cl)cc1` [compound 190, 3-(4-chlorophenyl)-7-[[4-(2-fluorophenyl)-1-piperazinyl]carbonyl]-2-quinoxalinepentanoic acid]: where the note is “rated A-E (Table A)”, the Ki fell in the range of 0.1 to 2 nM.

`O=C(O)CCCCc1nc2cc(C(=O)N3CCN(c4ccc(Cl)cc4)CC3)ccc2nc1-c1ccc(Cl)cc1` [compound 191, 3-(4-chlorophenyl)-7-[[4-(4-chlorophenyl)-1-piperazinyl]carbonyl]-2-quinoxalinepentanoic acid] yielded a Ki (rated A-E (Table A)) of 0.1 to 2 nM.

For the setting “rated A-E (Table A)”, `O=C(O)Cc1cccc(CCc2nc3cc(C(=O)NCc4cccc(F)c4)ccc3nc2-c2ccc(F)cc2)c1` [compound 192, 3-[2-[3-(4-fluorophenyl)-7-[[[(3-fluorophenyl)methyl]amino]carbonyl]-2-quinoxalinyl]ethyl]benzencacetic acid] yielded an inhibition constant Ki of 2.1 to 20 nM.

Turning to `O=C(O)Cc1cccc(CCc2nc3cc(C(=O)NCc4ccc(F)cc4)ccc3nc2-c2ccc(F)cc2)c1` [compound 193, 3-[2-[3-(4-fluorophenyl)-7-[[[(4-fluorophenyl)methyl]amino]carbonyl]-2-quinoxalinyl]ethyl] benzeneacetic acid], the inhibition constant Ki was 2.1 to 20 nM (rated A-E (Table A)) and 14.6 nM (values in text).

Take `N#Cc1ccc(CNC(=O)c2ccc3nc(-c4ccc(F)cc4)c(CCc4cccc(CC(=O)O)c4)nc3c2)cc1` [compound 194]: the Ki (rated A-E (Table A)) was in the range of 20.1 to 200 nM.

For the setting “rated A-E (Table A)”, `C[C@@H](NC(=O)c1ccc2nc(-c3ccc(F)cc3)c(CCc3cccc(CC(=O)O)c3)nc2c1)c1ccc(F)cc1` [compound 195, 3-[2-[3-(4-fluorophenyl)-7-[[[1(R)-(4-fluorophenyl)ethyl]amino]carbonyl]-2-quinoxalinyl]ethyl] benzeneacetic acid] came in with a Ki of 20.1 to 200 nM.

As for `C[C@H](NC(=O)c1ccc2nc(-c3ccc(F)cc3)c(CCc3cccc(CC(=O)O)c3)nc2c1)c1ccc(F)cc1` [compound 196], the inhibition constant (Ki) (rated A-E (Table A)) lay in the range of 20.1 to 200 nM.

As for `O=C(O)Cc1cccc(CCc2nc3cc(C(=O)N[C@@H](CCO)c4ccccc4)ccc3nc2-c2ccc(F)cc2)c1` [compound 197, 3-[2-[3-(4-fluorophenyl)-7-[[(3-hydroxy-1(S)-phenylpropyl)amino]carbonyl]-2-quinoxalinyl]ethyl] benzeneacetic acid], the Ki (rated A-E (Table A)) lay within 201 to 700 nM and the affinity (values in text) corresponds to a Ki of 464 nM.

`O=C(O)Cc1cccc(CCc2nc3cc(C(=O)N4CCC(c5ccccc5)CC4)ccc3nc2-c2ccc(F)cc2)c1` [compound 198, 3-[2-[3-(4-fluorophenyl)-7-[(4-phenyl-1-piperidinyl)carbonyl]-2-quinoxalinyl]ethyl] benzeneacetic acid] registered a Ki (rated A-E (Table A)) of 2.1 to 20 nM.

Molecule `O=C(O)Cc1cccc(CCc2nc3cc(C(=O)N4CCN(c5ccccc5)CC4)ccc3nc2-c2ccc(F)cc2)c1` [compound 199, 3-[2-[3-(4-fluorophenyl)-7-[(4-phenyl-1-piperazinyl)carbonyl]-2-quinoxalinyl]ethyl] benzeneacetic acid] displayed a Ki (rated A-E (Table A)) of 2.1 to 20 nM.

(Values after patent US9469615B2, “Quinoxalines and AZA-quinoxalines as CRTH2 receptor modulators” (Merck Sharp & Dohme Corp., priority 2010, dated 2016).)
